Laboratory results published in patent US20100298141A1, “SUBSTITUTED PYRIDINE N-OXIDE HERBICIDES” (E. I. DU PONT DE NEMOURS AND COMPANY, priority 2007, published 2010).

Legend:
green foxtail = experiment: Test F preemergence test; assay type: in vivo, Setaria viridis; conditions: scale 0 to 100; for Foxtail, Green plant response rating: 62 g ai/ha
How it was run: (§1)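 Compounds in a non-phytotoxic solvent formulation with surfactant were applied before emergence after sowing, or, for sugarcane, also postemergence. Evaluation was visual, against controls, after 14 to 21 greenhouse days.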

dallisgrass = experiment: Test F preemergence test; assay type: in vivo, Paspalum dilatatum; conditions: scale 0 to 100; for Dallisgrass plant response rating: 62 g ai/ha
How it was run: as §1

umbrella sedge = experiment: Test C flooded paddy test; assay type: in vivo, Cyperus difformis; conditions: Flood
How it was run: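 Pots were flooded to 3 cm above the soil surface at treatment, compound applied directly to the paddy water, and that depth held throughout. Plants were kept in a greenhouse for 13 to 15 days, then visually rated against untreated controls.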

crabgrass = experiment: Test C pre-/postemergence test; assay type: in vivo, Digitaria sanguinalis
How it was run: (§2)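 Compounds in a non-phytotoxic solvent with surfactant applied preemergence to seeded pots and, at the same time, postemergence to plants 2–18 cm tall (1- to 4-leaf stage). Paddy tests: pots flooded to 3 cm, compound applied into the water, depth held throughout.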

kochia = experiment: Test F preemergence test; assay type: in vivo, Kochia scoparia; conditions: scale 0 to 100; for Kochia plant response rating: 62 g ai/ha
How it was run: as §1

Goosegrass = experiment: Test C pre-/postemergence test; assay type: in vivo, Eleusin indica
How it was run: as §2

mustard = experiment: Test F preemergence test; assay type: in vivo, Brassica nigra; conditions: scale 0 to 100; for Black Mustard plant response rating: 62 g ai/ha
How it was run: as §1

quackgrass = experiment: Test F preemergence test; assay type: in vivo, Elytrigia repens; conditions: scale 0 to 100; for Quackgrass plant response rating: 62 g ai/ha
How it was run: as §1

annual bluegrass = experiment: Test F preemergence test; assay type: in vivo, Poa annua; conditions: scale 0 to 100; for Bluegrass plant response rating: 62 g ai/ha
How it was run: as §1

common groundsel = experiment: Test F preemergence test; assay type: in vivo, Senecio vulgaris; conditions: scale 0 to 100; for Groundsel plant response rating: 62 g ai/ha
How it was run: as §1

common mallow = experiment: Test F preemergence test; assay type: in vivo, Malva sylvestris; conditions: scale 0 to 100; for Mallow plant response rating: 62 g ai/ha
How it was run: as §1

wheat = experiment: Test A pre-/postemergence greenhouse test; assay type: in vivo, Triticum aestivum; conditions: for Wheat plant response rating: 0 to 100 scale; for Plant response rating, Wheat: 0 to 100 scale where 0 is no effect and 100 is complete control
How it was run: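 Two application timings were run side by side in the greenhouse. Before emergence, compound went onto the soil surface of loam–sand pots as a directed spray; after emergence, plants at 2–10 cm and the one- to two-leaf stage were treated. Visual injury versus controls was rated at approximately day ten.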

[1] = 62 g ai/ha, Preemergence, scale 0 to 100
[2] = Preemergence, 31 g ai/ha, scale 0 to 100 (0 no effect, 100 complete control)
[3] = Postemergence, 125 g ai/ha, 0 is no effect, 100 is complete control
[4] = Postemergence, 500 g ai/ha, 0 is no effect, 100 is complete control
[5] = Preemergence, 125 g ai/ha, 0 no effect, 100 complete control
[6] = 31 g ai/ha, Preemergence, scale 0 to 100
[7] = 62 g ai/ha, preemergence, scale 0 (no effect) to 100 (complete control)
[8] = Postemergence, 62 g ai/ha, scale 0 to 100, 0 no effect, 100 complete control
[9] = Postemergence, 125 g ai/ha, scale 0 to 100, 0 no effect, 100 complete control
[10] = Postemergence, 250 g ai/ha, scale 0 to 100, 0 no effect, 100 complete control
[11] = preemergence, 125 g ai/ha, scale 0 (no effect) to 100 (complete control)

SMILES: Cc1cc[n+]([O-])c([S+]([O-])Cc2c(C(F)(F)F)nn(C)c2Cl)c1 (racemic) [Compound 20]
- Plant response rating, Foxtail, Green (green foxtail; 8 g ai/ha, preemergence): 0
- Foxtail, Green plant response rating (green foxtail; Preemergence): 75
- Plant response rating, Foxtail, Green (green foxtail; Preemergence, 16 g ai/ha): 10
- Plant response rating, Foxtail, Green (green foxtail; Preemergence, 31 g ai/ha): 40
- Plant response rating, Dallisgrass (dallisgrass; 8 g ai/ha, preemergence): 0
- Dallisgrass plant response rating (dallisgrass; Preemergence): 75
- Plant response rating, Dallisgrass (dallisgrass; Preemergence, 16 g ai/ha): 0
- Plant response rating, Dallisgrass (dallisgrass; Preemergence, 31 g ai/ha): 20
- Plant response rating, Sedge, Umbrella (umbrella sedge; 31 g ai/ha, scale 0 to 100 (0 no effect, 100 complete control)): 0
- Plant response rating, Sedge, Umbrella (umbrella sedge; 62 g ai/ha, scale 0 to 100, 0 no effect, 100 complete control, 13 to 15 days): 0
- Plant response rating, Sedge, Umbrella (umbrella sedge; 125 g ai/ha, scale 0 to 100, 0 no effect, 100 complete control, 13 to 15 days): 85
- Plant response rating, Sedge, Umbrella (umbrella sedge; 250 g ai/ha, scale 0 to 100, 0 no effect, 100 complete control, 13 to 15 days): 85
- Crabgrass, Large plant response rating (crabgrass; [1]): 100
- Plant response rating, Crabgrass, Large (crabgrass; [2]): 85
- Plant response rating (0 to 100), Crabgrass, Large (crabgrass; Preemergence, 250 g ai/ha): 100
- Plant response rating, Kochia (kochia; 8 g ai/ha, preemergence): 0
- Kochia plant response rating (kochia; Preemergence): 50
- Plant response rating, Kochia (kochia; Preemergence, 16 g ai/ha): 0
- Plant response rating, Kochia (kochia; Preemergence, 31 g ai/ha): 0
- Goosegrass plant response rating (Goosegrass; [1]): 100
- Plant response rating, Goosegrass (Goosegrass; [2]): 85
- Plant response rating (0 to 100), Goosegrass (Goosegrass; Preemergence, 250 g ai/ha): 100
- Plant response rating, Black Mustard (mustard; 8 g ai/ha, preemergence): 0
- Black Mustard plant response rating (mustard; Preemergence): 90
- Plant response rating, Black Mustard (mustard; Preemergence, 16 g ai/ha): 50
- Plant response rating, Black Mustard (mustard; Preemergence, 31 g ai/ha): 60
- Plant response rating, Quackgrass (quackgrass; 8 g ai/ha, preemergence): 0
- Quackgrass plant response rating (quackgrass; Preemergence): 60
- Plant response rating, Quackgrass (quackgrass; Preemergence, 16 g ai/ha): 0
- Plant response rating, Quackgrass (quackgrass; Preemergence, 31 g ai/ha): 0
- Plant response rating, Bluegrass (annual bluegrass; 8 g ai/ha, preemergence): 0
- Bluegrass plant response rating (annual bluegrass; Preemergence): 40
- Plant response rating, Bluegrass (annual bluegrass; Preemergence, 16 g ai/ha): 0
- Plant response rating, Bluegrass (annual bluegrass; Preemergence, 31 g ai/ha): 0
- Plant response rating, Groundsel (common groundsel; 8 g ai/ha, preemergence): 0
- Groundsel plant response rating (common groundsel; Preemergence): 0
- Plant response rating, Groundsel (common groundsel; Preemergence, 16 g ai/ha): 0
- Plant response rating, Groundsel (common groundsel; Preemergence, 31 g ai/ha): 0
- Plant response rating, Mallow (common mallow; 8 g ai/ha, preemergence): 0
- Mallow plant response rating (common mallow; Preemergence): 60
- Plant response rating, Mallow (common mallow; Preemergence, 16 g ai/ha): 0
- Plant response rating, Mallow (common mallow; Preemergence, 31 g ai/ha): 25
- Wheat plant response rating (wheat; [3]): 0
- Wheat plant response rating (wheat; [4]): 60
- Wheat plant response rating (wheat; [5]): 30
- Plant response rating, Wheat (wheat; Preemergence, 500 g ai/ha): 80

SMILES: Cn1nc(C(F)(F)F)c(C[S+]([O-])c2ccc(Cl)c[n+]2[O-])c1OC(F)F (centres unmarked) [Compound 6]
- Plant response rating, Foxtail, Green (green foxtail; 8 g ai/ha, preemergence): 0
- Foxtail, Green plant response rating (green foxtail; Preemergence): 85
- Plant response rating, Foxtail, Green (green foxtail; Preemergence, 16 g ai/ha): 65
- Plant response rating, Foxtail, Green (green foxtail; Preemergence, 31 g ai/ha): 80
- Plant response rating, Dallisgrass (dallisgrass; 8 g ai/ha, preemergence): 0
- Dallisgrass plant response rating (dallisgrass; Preemergence): 70
- Plant response rating, Dallisgrass (dallisgrass; Preemergence, 16 g ai/ha): 20
- Plant response rating, Dallisgrass (dallisgrass; Preemergence, 31 g ai/ha): 50
- Crabgrass, Large plant response rating (crabgrass; [6]): 98
- Crabgrass, Large plant response rating (crabgrass; [7]): 100
- Plant response rating (0 to 100), Crabgrass, Large (crabgrass; Postemergence, 31 g ai/ha): 5
- Plant response rating, Crabgrass, Large (crabgrass; [8]): 10
- Plant response rating, Crabgrass, Large (crabgrass; [9]): 40
- Plant response rating, Crabgrass, Large (crabgrass; [10]): 45
- Plant response rating (0 to 100), Crabgrass, Large (crabgrass; Preemergence, 250 g ai/ha): 100
- Crabgrass, Large plant response rating (crabgrass; [11]): 100
- Plant response rating, Kochia (kochia; 8 g ai/ha, preemergence): 0
- Kochia plant response rating (kochia; Preemergence): 60
- Plant response rating, Kochia (kochia; Preemergence, 16 g ai/ha): 0
- Plant response rating, Kochia (kochia; Preemergence, 31 g ai/ha): 0
- Goosegrass plant response rating (Goosegrass; [6]): 98
- Goosegrass plant response rating (Goosegrass; [7]): 100
- Plant response rating (0 to 100), Goosegrass (Goosegrass; Postemergence, 31 g ai/ha): 0
- Plant response rating, Goosegrass (Goosegrass; [8]): 0
- Plant response rating, Goosegrass (Goosegrass; [9]): 20
- Plant response rating, Goosegrass (Goosegrass; [10]): 45
- Plant response rating (0 to 100), Goosegrass (Goosegrass; Preemergence, 250 g ai/ha): 100
- Goosegrass plant response rating (Goosegrass; [11]): 100
- Plant response rating, Black Mustard (mustard; 8 g ai/ha, preemergence): 0
- Black Mustard plant response rating (mustard; Preemergence): 100
- Plant response rating, Black Mustard (mustard; Preemergence, 16 g ai/ha): 0
- Plant response rating, Black Mustard (mustard; Preemergence, 31 g ai/ha): 100
- Plant response rating, Quackgrass (quackgrass; 8 g ai/ha, preemergence): 0
- Quackgrass plant response rating (quackgrass; Preemergence): 75
- Plant response rating, Quackgrass (quackgrass; Preemergence, 16 g ai/ha): 60
- Plant response rating, Quackgrass (quackgrass; Preemergence, 31 g ai/ha): 65
- Plant response rating, Bluegrass (annual bluegrass; 8 g ai/ha, preemergence): 0
- Bluegrass plant response rating (annual bluegrass; Preemergence): 90
- Plant response rating, Bluegrass (annual bluegrass; Preemergence, 16 g ai/ha): 10
- Plant response rating, Bluegrass (annual bluegrass; Preemergence, 31 g ai/ha): 75
- Plant response rating, Groundsel (common groundsel; 8 g ai/ha, preemergence): 0
- Groundsel plant response rating (common groundsel; Preemergence): 75
- Plant response rating, Groundsel (common groundsel; Preemergence, 16 g ai/ha): 50
- Plant response rating, Groundsel (common groundsel; Preemergence, 31 g ai/ha): 75
- Plant response rating, Mallow (common mallow; 8 g ai/ha, preemergence): 0
- Mallow plant response rating (common mallow; Preemergence): 90
- Plant response rating, Mallow (common mallow; Preemergence, 16 g ai/ha): 0
- Plant response rating, Mallow (common mallow; Preemergence, 31 g ai/ha): 30
- Wheat plant response rating (wheat; [3]): 30
- Wheat plant response rating (wheat; [4]): 70
- Wheat plant response rating (wheat; [5]): 90
- Plant response rating, Wheat (wheat; Preemergence, 500 g ai/ha): 90
